Results on 88 molecules are retold here after a melting point compilation (Tetko et al.; mined from patent text by program, amines drawn as free bases though some values may be those of a salt).

Some results are limits rather than exact numbers.

As usually defined, the melting point is the temperature of the solid-liquid transition. Molecule `CC(=O)c1ccc(-c2cc(-c3nc4ccccc4c(=O)n3-c3ccc(Cl)cc3)sc2N2CCOCC2)cc1` displayed a melting point of 222 to 226 °C.

As to `CCCCC(Cn1cncn1)(C(N)=O)c1ccc(Cl)cc1Cl` (stereo not drawn), the melting point lay in the range of 170 to 172 °C.

In the case of `O=c1[nH]c2ccccc2n1CCCN1CCN(C(c2ccccc2)c2ccccn2)CC1` (stereo not drawn), the melting point was found to be 142 °C.

Consider `CC1(C)C2CCC1(CNC(=O)CBr)CC2`, for which the melting point was 89 °C.

On to `N=C(N)NCCOc1ccc2c(c1)CC(CCC(=O)O)C(=O)N2` (stereo not drawn), for which the melting point lay within 119 to 122 °C.

In the case of `Cc1ccc(S(=O)(=O)OC2CCc3[nH]c4ccc(C)cc4c3C2)cc1` (stereo not drawn), the melting point lay within 125 to 127 °C.

`CN(c1ccc(O)cc1)S(=O)(=O)c1ccc(C(F)(F)F)cc1` registered a melting point of 145 to 146 °C.

The molecule `CCOC(=O)c1cnc(Cl)c(N)c1NC` came in with a melting point of 50 to 52 °C.

The molecule `O=C(NCc1ccc(Cl)cc1)c1cnc2sccc2c1O` showed a melting point of 238 to 240 °C.

Regarding `COc1ccc2c(=O)c(CO)cn(C)c2c1`, the melting point was in the range of 164 to 166 °C.

Take `CCCC(=O)N(NC(N)=S)c1ccccc1`: the melting point fell in the range of 219 to 221 °C.

`O=C(CC12CC3CC(CC(C3)C1)C2)N1CCc2sccc2C1` returned a melting point of 121 to 125 °C.

Regarding `CCOC(=O)Cn1c(=O)c(=O)[nH]c2cc(C(F)(F)F)c(-n3ccc(C=NO)c3)cc21`, the melting point was > 250 °C.

For `COc1nc2cc(C)c(Cl)c(NS(C)(=O)=O)c2nc1OC`, the melting point was found to be 198 °C.

On to `COC(=O)Cc1ccc(OCCN2CCN(c3cc(Cl)nnc3Cl)CC2)cc1`, for which the melting point was in the range of 84 to 86 °C.

`O=C1c2c(O)cc(O)cc2OC(c2ccc(O)cc2)C1O` (stereo not drawn) registered a melting point of 221 to 223 °C.

For `COC1=CC2=C(CN1OC)C1=C(c3cc4c(cc3C1=O)OCO4)C(CCCC(C)O)C2=O` (stereo not drawn), the melting point lay in the range of 288 to 290 °C.

Regarding `COc1ccc(CCCC(CC(=O)O)CC(=O)O)cc1`, the melting point is 71 to 73 °C.

Molecule `CC(C)(C)OC(=O)C1CCN(C(=O)OCc2ccccc2)N1` (stereo not drawn) came in with a melting point of 55 to 57 °C.

In turn, `Nc1ccc(Oc2ccccc2Oc2ccc(N)cc2)cc1` had a melting point of 135 to 136 °C.

The molecule `COCCOCc1c(C=O)sc2c(=O)c(C(=O)NCc3ccc(Cl)cc3)cn(C)c12` gave a melting point of 152 to 153 °C.

Take `CC(NC(=O)OC(C)(C)C)C1CCN(c2c(F)c(N)c3c(=O)[nH]c(=O)n4c3c2OCC4C)C1` (stereo not drawn): the melting point was 136 to 138 °C.

Molecule `CON=C1CN(c2nc3c(cc2F)c(=O)c(C(=O)O)cn3-c2ccc(F)cc2F)CC12CN(C(=O)OC(C)(C)C)C2` registered a melting point of 230 to 232 °C.

Consider `O=CNc1ccc(OCCNCC(O)c2ccc(OCc3ccccc3)cc2)cc1` (stereo not drawn), for which the melting point was found to be 152 °C.

Molecule `COc1ccc(Nc2nc(NC3CCCCCC3)nc(N3CCCC3)n2)cc1F` registered a melting point of 79 °C.

The molecule `COc1ccc(CC(C)NCC(O)c2cccc(Cl)c2F)cc1` (stereo not drawn) returned a melting point of 95 to 101 °C.

In turn, `CC(C)(C)c1ccc2nc3c(c(O)c2c1)CCCC3` came in with a melting point of 320 to 322 °C.

Regarding `OCCN(Cc1ccc2ccccc2c1)C1(c2nccc3sccc23)CCNCC1`, the melting point lay in the range of 53 to 55 °C.

In turn, `NS(=O)(=O)Cc1cccc2c1C(=O)OC2` gave a melting point of 192 to 195 °C.

As to `CC(C)OC(=O)NC1=NCC(c2cccc(F)c2)N1C` (stereo not drawn), the melting point was 103 to 104 °C.

`O=C(c1ccc(C(F)(F)F)cc1)N1CCC(=Cc2ccc(C3=NCCO3)cc2)CC1`: the melting point stood at 142 °C.

`CC(C)(O)CC(=O)N[C@H]1CC[C@H](CCN2CCC(c3cccc4c3CCO4)CC2)CC1` returned a melting point of 168 °C.

The molecule `CN1CCN(S(=O)(=O)c2cccc(NC(=O)c3cnn4c(C(F)(F)F)cc(-c5ccc(Cl)c(Cl)c5)nc34)c2)CC1` yielded a melting point of 181 °C.

As to `Cc1cc(-c2ccco2)ccc1-c1cc(C(F)(F)F)nn1-c1ccc(S(C)(=O)=O)cc1`, the melting point is 175 to 177 °C.

The molecule `NC(=O)c1ncn2c1CN=C(c1ccccc1Br)c1cc(F)ccc1-2` returned a melting point of 298 to 299 °C.

In turn, `CCc1nc(Cl)c(C(N)=O)n1Cc1ccc2oc(-c3ccccc3NS(=O)(=O)C(F)(F)F)c(Br)c2c1` registered a melting point of 68 to 70 °C.

On to `CC1C(=C[N+](=O)[O-])Nc2ccc(Cl)cc2C(c2ccccc2F)=[N+]1[O-]` (stereo not drawn), for which the melting point lay in the range of 198 to 200 °C.

In the case of `Cc1ccc(S(=O)(=O)NC(=O)OCCc2ccc(-n3c(CCCc4ccccc4)nc4c(C)nc(C)cc43)cc2)cc1`, the melting point came to 175 °C.

As to `CSc1nn2c(N)cc(C)nc2c1S(=O)(=O)c1ccccc1C`, the melting point was > 250 °C.

`Cc1oc2c(-c3ccc(F)cc3)c(-c3ccc(S(C)(=O)=O)cc3)nn2c1-c1cccs1` registered a melting point of 240 to 241 °C.

For `CCN(c1ccc(N2CCN(c3ccc(O)cc3)CC2)cc1)c1nccs1`, the melting point is 215 °C.

`c1c2c(cc3c1CCC3)CCC2` displayed a melting point of 35 to 36.2 °C.

On to `CCC1(O)CC(=O)OCc2c1cc1n(c2=O)Cc2c-1nc1ccc(Cl)cc1c2-c1ccccc1F` (stereo not drawn), for which the melting point was > 250 °C.

As to `Cc1ccc(Sc2ccc(C)cc2)cc1`, the melting point came to 56.5 °C.

Regarding `CN(C)C(=O)Cc1ccccc1Nc1c(F)c(F)cc(F)c1F`, the melting point is 109 to 110 °C.

`Cc1nc(N2CCN(Cc3ccccc3)C2=O)sc1C(N)=O` gave a melting point of 217 to 218 °C.

In turn, `CC(C=Cc1cccc(-c2cc3c(cc2C)C(C)(C)CCC3(C)C)c1)=CC(=O)O` had a melting point of 99 to 101 °C.

Take `Cc1ccccc1Nc1cccc(-c2ccccc2)c1CN`: the melting point lay in the range of 103 to 105 °C.

Molecule `COc1ccc(S(=O)(=O)C(C)(Cc2ccc(OCCN3CCCCC3)cc2)C(N)=O)cc1` (stereo not drawn) had a melting point of 98 °C.

Consider `CSc1nc(C)ccc1NC(=O)CSc1nc2ccccc2[nH]1`, for which the melting point fell in the range of 192 to 193 °C.

`COc1ccc(-c2cc3ccccc3n2C(C)=O)cc1` showed a melting point of 68 to 71 °C.

For the molecule `CN(C)C1(C(=O)c2cc3ccccc3n2C)CCC(c2ccccc2)(N(C)C)CC1` (stereo not drawn), the melting point fell in the range of 109 to 111 °C.

`O=C(O)c1cccc2nc(OCC(F)(F)F)n(Cc3ccc(-c4ccccc4-c4nnn[nH]4)cc3)c12`: the melting point was in the range of 204 to 206 °C.

`O=c1[nH]c(=O)n(CCCl)c2ccccc12` registered a melting point of 189 to 192 °C.

Molecule `ON=C1CCC(C2CCCC2)=C1c1cccc(O)c1` registered a melting point of 207 to 209 °C.

On to `CCOC(=O)c1cn(C2COC2)c2cc(F)c(F)cc2c1=O`, for which the melting point is 177 to 178 °C.

With `FC(F)Oc1ccc(C=Cc2nc(CNc3ccc(CCCCn4ccnn4)cc3)co2)cc1`, the melting point lay in the range of 101 to 102 °C.

The molecule `O=C(NC1CCN(CCC2CCOc3ccccc32)CC1)c1cc2ccccc2o1` (stereo not drawn) registered a melting point of 146 to 148 °C.

As for `COc1cc2c(cc1OC)-c1c(-c3nc(-c4ccccc4)no3)c(-c3cc(C)c(O)c(C)c3)c(C)n1C(C)C2` (racemic), the melting point was 203 to 206 °C.

As to `CCOC(=O)C1=C(COCCNC=O)NC(C)=C(C(=O)OC)C1c1cccc(Cl)c1Cl` (stereo not drawn), the melting point was in the range of 178 to 181 °C.

In turn, `Fc1ccc(-c2ncn(C3CC3)c2-c2ccncc2)cc1` came in with a melting point of 129 to 130 °C.

Regarding `CCOC(=O)c1nc(O)sc1C(=O)CBr`, the melting point is 105 to 108 °C.

Regarding `CN(C)C(=S)Oc1ccccc1C#N`, the melting point came to 112 °C.

With `O=C(O)C1Cc2ccccc2N1C(=O)c1ccccc1` (stereo not drawn), the melting point was in the range of 209 to 210 °C.

As for `N#Cc1cc(N)ccc1Sc1ccccc1`, the melting point lay in the range of 73 to 75 °C.

`CC(=O)c1c(C#N)nn(-c2c(Cl)cc(OC(F)(F)F)cc2Cl)c1N`: the melting point lay within 192 to 193 °C.

With `COC(=O)c1nc(-c2ccc(Cl)cc2)n(-c2ccc(Cl)cc2Cl)n1`, the melting point is 153 to 154 °C.

`Nc1nsnc1NCCCOc1cccc(CN2CC=CCC2)c1`: the melting point was in the range of 99.5 to 104 °C.

Molecule `CN1C(=O)C(c2ccc(OC(F)F)cc2)(C23CC4CC(CC(C4)C2)C3)N=C1N` (stereo not drawn) showed a melting point of 216 to 218 °C.

`CCOC(=NC(=O)C1CC1)N1Cc2ccccc2-c2ccccc2C1` displayed a melting point of 97 to 99 °C.

On to `C=CCOCCCCOc1ccc2c(c1)Cc1cc(C(C)=O)ccc1-2`, for which the melting point worked out at 77 °C.

As for `N#CC(N)c1c(Cl)cccc1Cl` (stereo not drawn), the melting point was > 300 °C.

Turning to `O=C(NC1CC1)c1ccc(F)c2c1CC(N(CCCc1c[nH]c3ccc(F)cc13)C1CCC1)CO2` (stereo not drawn), the melting point came out at 134 °C.

Molecule `CC(=O)N1CCCC(C(=O)c2ccc(N3CCCCC3)cc2)C1` (stereo not drawn) showed a melting point of 116 to 120 °C.

Molecule `CCc1nc2c(N)nc3cc(OCC(=O)N4CCOCC4)ccc3c2n1CC1CCOCC1` displayed a melting point of 245 to 247 °C.

`COC(=O)Nc1ccc(OC(=O)OC)cc1` displayed a melting point of 75 to 76 °C.

`COc1ccc(C(=O)Nc2ccc(C3(CNC(=O)c4cscn4)CCCC3)cc2)cc1OC` had a melting point of 101 to 104 °C.

The molecule `CCn1nc(-c2ccc(F)cc2)c(-c2ccncc2)c1C(=O)N(C)Cc1ccccn1` returned a melting point of 144 to 147 °C.

In turn, `N#Cc1ccc(OCCCOc2ccc(-c3cc4cc(C#N)ccc4o3)cc2)cc1` yielded a melting point of 188 to 189 °C.

Regarding `CC12CCC(O)CC1CCC1C2CCC2(C)C(=O)CCC12F` (stereo not drawn), the melting point fell in the range of 201 to 202 °C.

`NC(=O)C(CCc1ccccc1)NC(=O)c1ccc2[nH]c(-c3ccccc3)c(-c3ccccc3)c2c1` (stereo not drawn) gave a melting point of 120 to 125 °C.

`CC(=O)Nc1c(Cl)cc(Br)c(C)c1Cl` had a melting point of 173 to 174 °C.

`NS(=O)(=O)c1cc2c(s1)S(=O)(=O)CC=C2`: the melting point was 210 to 212 °C.

`Cc1c(Cc2ccc(C(C)C)cc2)c2c(c(C)c1NC(=O)CC(C)(C)C)C(N1CCCC1)C(C)(C)O2` (stereo not drawn): the melting point lay within 179 to 180 °C.

For `O=C(Nc1c(F)cccc1F)c1c(O)ccn2c1nc1ccccc12`, the melting point lay within 232 to 235 °C.

In the case of `CN1CC(CCN2CCN(c3ccccc3F)CC2)OC1=O` (stereo not drawn), the melting point is 80 to 82 °C.

Regarding `c1ccc(-c2ncc(-c3n[nH]c(-c4cccnc4)n3)cn2)cc1`, the melting point was in the range of 322 to 333 °C.

As for `CN(C)CC1CNc2cc(Cl)ccc2C1` (stereo not drawn), the melting point is 107 to 110 °C.
